In one data set the target is T1, salivary α-amylase (Homo sapiens, UniProt P0DUB6).
T1 sequence (P0DUB6 16-511): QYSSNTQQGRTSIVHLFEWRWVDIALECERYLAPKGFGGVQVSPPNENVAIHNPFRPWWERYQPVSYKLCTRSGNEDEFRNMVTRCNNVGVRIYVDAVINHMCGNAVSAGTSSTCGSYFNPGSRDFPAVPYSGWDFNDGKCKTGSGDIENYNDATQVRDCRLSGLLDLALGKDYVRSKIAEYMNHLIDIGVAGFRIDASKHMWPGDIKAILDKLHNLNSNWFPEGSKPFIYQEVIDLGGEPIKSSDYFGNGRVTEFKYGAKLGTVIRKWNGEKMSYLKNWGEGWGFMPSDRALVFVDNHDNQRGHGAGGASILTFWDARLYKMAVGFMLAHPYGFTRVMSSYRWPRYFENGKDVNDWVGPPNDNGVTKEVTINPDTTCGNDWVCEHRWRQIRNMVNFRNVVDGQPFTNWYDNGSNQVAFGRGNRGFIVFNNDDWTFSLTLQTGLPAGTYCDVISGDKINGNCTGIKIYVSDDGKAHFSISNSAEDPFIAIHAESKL
In words: Digestibility of ICM by salivary α-amylase. The following applies: reducing saccharides/total saccharides x100.

Data set [1] in a line: Amino-carbonyl reaction with glycine. It counts as physicochemical. The following applies: 5% (w/v) saccharide + 1% (w/v) glycine, pH 7.0, 120° C., blank subtracted. As for the experimental part: ICG5, used in Experiment 15 and commercially available super high-grade glycine were dissolved in deionized water, and then admixed with phosphate buffer to make into an aqueous ICG5 solution containing 5% (w/v) of ICG5 and 1% (w/v) glycine, adjusted to pH 7.0. As a control, an aqueous α-cyclodextrin (α-CD) solution containing α-CD and glycine was prepared in the same manner using α-CD in place of ICG5. Four milliliters each of the solution was put in a glass tube, sealed and then heated at 120° C. for 30, 60, or 90 min. After cooling the solutions in ambient temperature, the degrees of coloring of the solutions were measured to estimate the degree of amino-carbonyl reaction. As a blank test, a solution containing glycine only was heated in the same manner. The degree of coloring was defined as an absorbance at 480 nm using a 1 cm-cell after subtracting the absorbance of the blank test.

A short description of data set [2]: Clathrating action of ICM (amount of compound clathrated, gas-chromatography). The following applies: 3-folds molar amount. The data set is classed as physicochemical. As for the experimental part:
ICG5 used in Experiment 15, was dissolved in deionized water to make into an aqueous solution containing 20% (w/v) of ICG5. Twenty milliliters of the aqueous solution was admixed with 3-folds amount, on a molar basis to ICG5, of either of four kinds of short chain alcohols, i.e., methanol, ethanol, propanol, and butanol; four kinds of short chain fatty acids, i.e., acetic acid, propionic acid, n-butyric acid, and n-valeic acid; and four kinds of aromatic compounds, i.e., benzyl alcohol, phenethyl alcohol, 4-phenyl-1-propanol, and o-cresol; and then stirred the mixture to homogeneity for allowing ICG5 to clathrate the compound. Successively, each solution was filtrated, and the resulting filtrate was freeze-dried to remove unclathrated compound. In order to measure the amount of compound clathrated in the freeze-dried product, the amount of each compound in each freeze-dried product was determined by gas-chromatography. Alpha-CD was used as a control and subjected to the similar test.

Another data set deals with ICM-forming enzyme. In words: Action on various saccharides (substrate specificity, TLC). It counts as biochemical, Bacillus circulans AM7. On the set-up: key: −: Not changed; +: Spot of substrate is slightly decreased and the formation of ICM are detected; ++: Spot of substrate is markedly decreased and the formation of ICM are detected; +++: Spot of substrate is virtually disappeared and the formation of ICM are detected. The following applies: substrate 2% (w/v), one unit/g-substrate enzyme, 40° C., pH 6.0, 24 hours. How it is done: Substrate specificity of ICM-forming enzyme was investigated using various saccharides as substrates. Substrate solutions were prepared by dissolving maltose, maltotriose, maltotetraose, maltopentaose, maltohexaose, maltoheptaose, neotrehalose, trehalose, kojibiose, nigerose, isomaltose, isomaltotriose, panose, isopanose, maltitol, maltotriitol, α-, β-, or γ-cyclodextrin, amylose, soluble starch, glycogen, pullulan or dextran in water. Each substrate solution was admixed with acetate buffer (pH 6.0) and CaCl2 to give final concentrations of 20 mM and 1 mM, respectively. […] Substrate concentration was set to 2% (w/v) and followed by the enzyme reaction at 40° C. and pH 6.0 for 24 hours. To examine the saccharides in each mixture before and after the reaction, saccharides were separated by silica gel thin-layer chromatography (hereinafter, simply abbreviated as “TLC”) using “KIESELGEL 60”, a TLC aluminum plate (10×20 cm) and a solvent (n-butanol/pyridine/water, volume ratio of 6:4:1) and two-times ascending method. The separated saccharides on the plate were detected by visualizing the spots with sulfate-methanol method. By the above TLC analyses, the enzymatic action and the degree of the reaction of ICM-forming enzyme on each substrate were confirmed.

The subject of a further data set is pancreas α-amylase. In words: Digestibility of ICM by pancreas α-amylase. The following applies: reducing saccharides/total saccharides x100.
Data set [3] has as its system small intestinal enzymes.
Excerpt: (§1) 43, 23-29 (1990), the digestibility of ICM by salivary α-amylase, artificial gastric juice, pancreas amylase, and small intestinal enzymes were investigated using ICG5, used in Experiment 15. […] In Table 18, the digestion (%) means a value calculated by the formula: Digestion (%)=(The amount of reducing saccharides/The amount of the total saccharides)×100 , in respective reaction described above.
Data set [4] is described as follows: Amino-carbonyl reaction with polypeptone. The following applies: with 5% (w/v) polypeptone, 120° C., blank subtracted. It counts as physicochemical. How it is done:
ICG5 used in Experiment 15 and commercially available polypeptone, commercialized by Nihon Pharmaceutical Co., Ltd., Tokyo, Japan, were dissolved in deionized water to make into an aqueous solution containing […] and 5% (w/v) of polypeptone. As a control, an aqueous solution containing α-CD and polypeptone was prepared in the same manner using α-CD in place of ICG5. Four milliliters each of the solution was put in a glass tube, sealed and then heated at 120° C. for 30, 60, or 90 min. After cooling the solutions in ambient temperature, the degrees of coloring of the solutions were measured to estimate the degree of amino-carbonyl reaction. As a blank test, a solution containing polypeptone only was heated in the same manner. The degree of coloring was defined as an absorbance at 480 nm using a 1 cm-cell after subtracting the absorbance of the blank test.

Data set [5] concerns small intestinal enzymes. Put plainly: Digestibility of ICM by small intestinal enzymes. The conditions noted are these: reducing saccharides/total saccharides x100.
Excerpt: as §1
Data set [6] can be described thus: Digestibility of ICM by artificial gastric juice. The conditions noted are these: reducing saccharides/total saccharides x100.
Excerpt: as §1

Where two headings read alike, the source gives them in different places.

Excerpt for pancreas α-amylase: as §1
Excerpt for salivary α-amylase: as §1

Consider `OC[C@H]1O[C@@H]2O[C@H]3[C@H](O)[C@@H](O)[C@@H](O[C@H]4[C@H](O)[C@@H](O)[C@@H](O[C@H]5[C@H](O)[C@@H](O)[C@@H](O[C@H]6[C@H](O)[C@@H](O)[C@@H](O[C@H]7[C@H](O)[C@@H](O)[C@@H](O[C@H]1[C@H](O)[C@H]2O)O[C@@H]7CO)O[C@@H]6CO)O[C@@H]5CO)O[C@@H]4CO)O[C@@H]3CO` [α-CD, α-cyclodextrin], for which the Digestion at salivary α-amylase is on record as 0%; in the data set on pancreas α-amylase, 0%; with small intestinal enzymes [3], 0.2%. In addition, the Degree of coloring is recorded as 0.02 A480 nm in data set [1] (heating time 0 min); 0.02 A480 nm in [1] (heating time 30 min); 0.03 A480 nm in data set [1] (heating time 60 min); 0.02 A480 nm in data set [1] (heating time 90 min); 0.01 A480 nm in data set [4] (heating time 0 min); 0.03 A480 nm in data set [4] (heating time 30 min). In addition, the Degree of coloring was found to be 0.04 A480 nm in [4] (heating time 60 min) and 0.06 A480 nm in [4] (heating time 90 min). Also, the “Amount of compound clathrated” value turned out to be 171.5 mg/g-freeze-dried product in [2] (objective compound: 4-Phenyl 1-propanol (aromatic compound)); 15.1 mg/g-freeze-dried product in data set [2] (objective compound: Acetic acid (short chain fatty acid)); 165.7 mg/g-freeze-dried product in data set [2] (objective compound: Benzyl alcohol (aromatic compound)); 79.5 mg/g-freeze-dried product in data set [2] (objective compound: Butanol (short chain alcohol)); 36.7 mg/g-freeze-dried product in [2] (objective compound: Ethanol (short chain alcohol)); 16.7 mg/g-freeze-dried product in data set [2] (objective compound: Methanol (short chain alcohol)). The “Amount of compound clathrated” value in [2] (objective compound: Phenethyl alcohol (aromatic compound)) stood at 144.4 mg/g-freeze-dried product; in [2] (objective compound: Propanol (short chain alcohol)), 66.8 mg/g-freeze-dried product; in data set [2] (objective compound: Propionic acid (short chain fatty acid)), 16.6 mg/g-freeze-dried product; in data set [2] (objective compound: n-Butyric acid (short chain fatty acid)), 13.2 mg/g-freeze-dried product; in data set [2] (objective compound: n-Valeic acid (short chain fatty acid)), 45.0 mg/g-freeze-dried product; in data set [2] (objective compound: o-Cresol (aromatic compound)), 49.5 mg/g-freeze-dried product. In the data set on ICM-forming enzyme, the Action entry is “−”.

In the case of `OC[C@H]1O[C@@H]2O[C@H]3[C@H](O)[C@@H](O)[C@@H](O[C@H]4[C@H](O)[C@@H](O)[C@@H](O[C@H]5[C@H](O)[C@@H](O)[C@@H](O[C@H]6[C@H](O)[C@@H](O)[C@@H](O[C@H]7[C@H](O)[C@@H](O)[C@@H](O[C@H]8[C@H](O)[C@@H](O)[C@@H](O[C@H]1[C@H](O)[C@H]2O)O[C@@H]8CO)O[C@@H]7CO)O[C@@H]6CO)O[C@@H]5CO)O[C@@H]4CO)O[C@@H]3CO` [β-CD, β-cyclodextrin], the Digestion on salivary α-amylase was 0%; in the data set with small intestinal enzymes [5], 1.1%; in the data set on pancreas α-amylase, 0.2%; in data set [6], 0%. The Action result in the data set on ICM-forming enzyme was “−”.

In the case of `OC[C@H]1O[C@@H]2O[C@H]3[C@H](O)[C@@H](O)[C@@H](O[C@H]4[C@H](O)[C@@H](O)[C@@H](O[C@H]5[C@H](O)[C@@H](O)[C@@H](O[C@H]6[C@H](O)[C@@H](O)[C@@H](O[C@H]7[C@H](O)[C@@H](O)[C@@H](O[C@H]8[C@H](O)[C@@H](O)[C@@H](O[C@H]9[C@H](O)[C@@H](O)[C@@H](O[C@H]1[C@H](O)[C@H]2O)O[C@@H]9CO)O[C@@H]8CO)O[C@@H]7CO)O[C@@H]6CO)O[C@@H]5CO)O[C@@H]4CO)O[C@@H]3CO` [γ-CD, γ-cyclodextrin], the Digestion on salivary α-amylase is listed as 0.1%; in the data set on small intestinal enzymes [5], 57.4%; in the data set with pancreas α-amylase it was 5.4%; in data set [6], 0%. For the same compound, the Action result in the data set with ICM-forming enzyme is recorded as “−”.

Values taken from patent publication US8633005B2, “Isocyclomaltooligosaccharide(s), isocyclomaltooligosaccharide-forming enzyme, their preparation and uses” (Hayashibara Co., Ltd., priority 2004, dated 2014).
